We go through two substances from patent US9029168B2, “Use and making of biosensors utilizing antimicrobial peptides for highly sensitive biological monitoring” (priority 2010, dated 2015).

In assay [1] the test system is E. coli O157:H7 cells. The assay can be described thus: Impedance spectroscopy of magainin-functionalized interdigitated microelectrode array, sensitivity measurements. The assay is classed as binding. To be noted: E. coli O157:H7 10^7 CFU/mL; response at 10 Hz. The method, then: FIG. 2 schematically outlines the sensing platform. AMPs are first immobilized on microfabricated interdigitated gold electrodes, anode 10 and cathode 12 (FIG. 2A). Magainin I was acquired with an additional cysteine residue at the C-terminus (FIG. 2B), allowing for facile and site specific covalent attachment to the gold electrodes. Next, heat-killed bacterial cells were injected and incubated with the AMP-modified electrodes. If the bacteria are recognized by the AMPs, binding will occur (FIG. 2C), leading to dielectric property changes which can be monitored via a spectrum analyzer. The impedance was measured over a frequency range of 10 Hz to 100 kHz.
Sensitivity of microbial detection is a key determinant for utility of the biosensor. To this end, the sensitivity of the magainin-functionalized microelectrode array in detecting bacterial cells was determined using impedance spectroscopy. […] A “blank” device with no immobilized AMPs was also tested for comparison. […] As the frequency increases, the contribution to the impedance from the bacterial cells decreases, leaving only the dielectric relaxation of small dipoles including water molecules in the buffer solution to affect the measured impedance. FIG. 3B depicts the impedance change at the fixed frequency of 10 Hz. […]

Assay [2] deals with Salmonella typhimurium. Description: Selectivity of AMP-functionalized biosensor, pathogenic E. coli relative to Salmonella. It counts as binding. The note with it: 10^7 CFU/mL. Here is the method: (§1) As a next step, the selectivity of the AMP-functionalized biosensors toward various bacterial species was determined. Specifically, the binding behavior of AMPs was probed toward: 1) Gram-negative pathogenic E. coli O157:H7, 2) the non-pathogenic E. coli strain ATCC 35218, 3) Gram-negative pathogenic Salmonella typhimurium, and Listeria monocytogenes, a Gram-positive pathogen. Collectively, these studies elucidate the matrix of selectivity as it depends on Gram-negative vs. Gram-positive species, and pathogenic vs. non-pathogenic strains. […]
(§2) Stock solutions of propidium iodide (PI), nucleic acid stain (Molecular probes, Eugene, Oreg.) were made from solid form by dissolving PI (MW=668.4) in deionized water at 1 mg/mL (1.5 mM) and stored at 4° C., protected from light. […] The binding pattern of the different bacterial cells was imaged using a Zeiss axiovert inverted microscope and recorded with a Zeiss axiocam digital camera. Surface density of the bound bacterial cells was analyzed and plotted using imageJ software from NIH.
(§3) Dielectric property changes due to AMP-bacteria interactions were probed using a Fast-Fourier Transform (FFT) spectrum analyzer. […] For real-time measurements, the impedance vs. time data was recorded while buffer solutions or different dilutions of bacterial solutions flowed through the microfluidic channel. […]

In assay [3] the test system is pathogenic E. coli cells. The assay can be described thus: Real-time detection in microfluidic flow cell, impedance response. The assay is classed as binding. To be noted: flow rate 5 μL/min. The method, then:
To simulate the use of the AMP microelectrodes in everyday applications, such as direct water sampling, the biosensor response tested to perform in real time, as shown in FIG. 8. First, a microfluidic cell was bonded to the interdigitated biosensor chip (FIG. 8A), such that the electrodes were perpendicular to the direction of the sample flow (FIG. 8B). Next, fluid was injected using a syringe pump connected to the inlet port, and allowed to flow through to the outlet port, at a flow rate of 100 μL/min. The flow cell was first flushed with buffer to establish a baseline. Various dilutions (10^4-10^7 CFU/mL) of pathogenic E. coli cells in PBS were then injected to the channel at a reduced flow rate of 5 μL/min for 30 min. […] Simultaneously, the impedance response was continuously monitored during the sample flow-through process (FIG. 8D). […] This difference between detection in flowing and static water sample has also been reported in fluorescent based assays. This difference is attributed to the opposing effects of shear and mixing on the binding kinetics.
Interdigitated capacitive electrodes were microfabricated on 4″ p-type silicon wafers (boron-doped, <100>, 10-16 Ω-cm, 550 μm thick). A 1 μm thick silicon dioxide layer was deposited on the wafer by plasma enhanced chemical vapor deposition (PECVD) to form electrical insulation between the Si substrate and the capacitive electrodes. S1813 photoresist was patterned using photolithography, followed by electron-beam evaporation of 10 nm Ti and 300 nm Au under high vacuum conditions. The titanium layer helps to provide adhesion of the Au to the SiO2. The IMA was then finally developed by lift-off patterning of the metallic layer in acetone with ultrasonic activation. […]
as §3

Assay [4] relates to Listeria monocytogenes. The assay can be described thus: Selectivity of AMP-functionalized biosensor (impedance at 10 Hz, fluorescent microscopy), Gram-negative pathogens relative to Listeria. It counts as binding. The note with it: all 10^7 CFU/mL. The method, then:
as §1, §2, §3

Assay [5] relates to methicillin resistant strains of S. aureus. To be noted: cited from earlier work.
Assay [6] concerns Helicobacter pylori. The note with it: cited from earlier work.
In assay [7] the test system is Escherichia coli. To be noted: cited from earlier work.
Assay [8] has as its system E. coli O157:H7 bacterial cell. The assay can be described thus: Single bacterium detection on graphene sensors functionalized with antimicrobial peptide, simultaneous resistance and optical data. It counts as binding. To be noted: compared to non-functionalized graphene. From the text:
Simultaneous collection of electrical and fluorescence data from the graphene sensors in the presence of fluorescently labeled E. coli cells clearly indicate that the change in the resistance recorded corresponds to the binding and unbinding of the bacterial cell from the graphene surface. The resistance of the graphene sensor remains at the baseline value until the bacterial cell diffuses to the sensor surface and drops down by approximately 0.6 percentage of the original, once the bacterial cell binds to the graphene surface.
The resistance of the sensor decreases from the baseline value up on the binding of the negatively charged bacterial cell and returns back to the initial value up on unbinding, indicating a p-type behavior of the graphene transducer. […] In order to determine the effect of the immobilized AMPs on the binding/unbinding properties simultaneous resistance and optical data were recorded on graphene sensors functionalized with antimicrobial peptides. […]
Electrical measurements for the detection of single bacteria binding measurements were performed with a lock-in detection system using Stanford Research Systems 810 DSP lock-in amplifier. […] The resistance of the graphene sensor was monitored continuously in the presence of analyte sample of various dilutions of bacterial cells. […]

Assay [9] deals with Staphylococcus aureus. To be noted: cited from earlier work.

On to GIGKFLHSAGKFGKAFVGEIMKS [magainin I], for which the “response of the biosensor towards target cells with increasing concentration of immobilized magainin” value in assay [1] is recorded as “increase monotonically”. In addition, in assay [2], the “response for pathogenic E. coli relative to Salmonella” value is “slightly larger response”. Besides, in [3] (10^4-10^7 CFU/mL in PBS), the “time to measurable response relative to the control sample, all samples” value was at most 5 min and the “time to saturation of responses” value is “ca. 20 min”. For the same substance, the “time to response, highest concentration sample” value in assay [3] is at most 30 s. Also, the “impedance difference, pathogenic Gram-negative E. coli and Salmonella relative to Gram-positive Listeria” value in assay [4] is “two”.

One may read the MIC as the lowest concentration found to suppress growth. Consider Odorranin-HP [O-HP], for which, in assay [5], the antimicrobial activity result is listed as “exert antimicrobial activity”. Also, the minimal inhibitory concentration (MIC) was 20 µg/mL in assay [6], 30 µg/mL in [7] and 5 µg/mL in assay [9]. Besides, the “effect of immobilized peptide on unbinding of bacterial cells” value in assay [8] is on record as “slows the unbinding kinetics”.
